Laboratory results published in PubChem BioAssay AID270 (DTP/NCI, 2004).
Results filed as inconclusive are left out.

System: BDF1 mice, s.c. Lewis lung carcinoma, T/C %
Test: NCI In Vivo Anticancer Drug Screen. Data for tumor model Lewis Lung Carcinoma (subcutaneous) in B6D2F1 (BDF1) mice
Procedure, shortened: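 Tumor-bearing mice were treated with test compound, and either survival or tumor size was recorded. Values are the treated-group measurement divided by that of the vehicle-treated control group.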

Structure (SMILES): CCOC(=O)CC(NC(=O)CP(=O)(OCC)OCC)C(=O)OCC (stereo unspecified)
- T/C (endpoint: median survival time, dose: 50.0 mg/kg/injection, schedule: Q01DX004 (ip), vehicle: saline, higher = longer survival): 113 % of control
- T/C (endpoint: median survival time, dose: 100.0 mg/kg/injection, schedule: Q01DX004 (ip), vehicle: saline, higher = longer survival): 116 % of control
- T/C (endpoint: median survival time, dose: 200.0 mg/kg/injection, schedule: Q01DX004 (ip), vehicle: saline, higher = longer survival): 124 % of control
- T/C (endpoint: median survival time, dose: 400.0 mg/kg/injection, schedule: Q01DX004 (ip), vehicle: saline, higher = longer survival): 116 % of control
- T/C (endpoint: median survival time, dose: 800.0 mg/kg/injection, schedule: Q01DX004 (ip), vehicle: saline, higher = longer survival): 116 % of control
- T/C (endpoint: median survival time, dose: 1600.0 mg/kg/injection, schedule: Q01DX004 (ip), vehicle: saline, higher = longer survival): 120 % of control

Structure (SMILES): CC(=O)NCCSC(=O)C(=O)SCCNC(C)=O
- T/C (endpoint: mean tumor weight, dose: 25.0 mg/kg/injection, schedule: Q01DX011 (ip), vehicle: saline, higher = larger tumour): 95 % of control
- T/C (endpoint: mean tumor weight, dose: 50.0 mg/kg/injection, schedule: Q01DX011 (ip), vehicle: saline, higher = larger tumour): 106 % of control
- T/C (endpoint: mean tumor weight, dose: 100.0 mg/kg/injection, schedule: Q01DX011 (ip), vehicle: saline, higher = larger tumour): 67 % of control

Structure (SMILES): O=NN(CCCl)C(=O)N[C@H]1CCCC[C@@H]1Cl
- T/C (endpoint: median survival time, dose: 9.0 mg/kg/injection, schedule: Q01DX001 (ip), vehicle: Klucel (hydroxypropylcellulose) (HPC), higher = longer survival): 112 % of control
- T/C (endpoint: median survival time, dose: 11.0 mg/kg/injection, schedule: Q01DX001 (ip), vehicle: gum acacia, higher = longer survival): 114 % of control
- T/C (endpoint: median survival time, dose: 17.0 mg/kg/injection, schedule: Q01DX001 (ip), vehicle: gum acacia, higher = longer survival): 107 % of control
- T/C (endpoint: median survival time, dose: 18.0 mg/kg/injection, schedule: Q01DX001 (ip), vehicle: Klucel (hydroxypropylcellulose) (HPC), higher = longer survival): 124 % of control
- T/C (endpoint: median survival time, dose: 25.0 mg/kg/injection, schedule: Q01DX001 (ip), vehicle: gum acacia, higher = longer survival): 95 % of control
- T/C (endpoint: median survival time, dose: 25.0 mg/kg/injection, schedule: Q04DX004 (ip), vehicle: gum acacia, higher = longer survival): 172 % of control
- T/C (endpoint: median survival time, dose: 45.0 mg/kg/injection, schedule: Q07DX002 (ip), vehicle: gum acacia, higher = longer survival): 159 % of control
- T/C (endpoint: median survival time, dose: 72.0 mg/kg/injection, schedule: Q01DX001 (ip), vehicle: Klucel (hydroxypropylcellulose) (HPC), higher = longer survival): 122 % of control
- T/C (endpoint: median tumor weight (est.), dose: 18.0 mg/kg/injection, schedule: Q01DX001 (ip), vehicle: gum acacia, higher = larger tumour): 68 % of control
- T/C (endpoint: median tumor weight (est.), dose: 37.0 mg/kg/injection, schedule: Q01DX001 (ip), vehicle: gum acacia, higher = larger tumour): 23 % of control
- T/C (endpoint: median tumor weight (est.), dose: 55.0 mg/kg/injection, schedule: Q01DX001 (ip), vehicle: gum acacia, higher = larger tumour): 7 % of control

Structure (SMILES): OCCc1ccccc1
- T/C (endpoint: mean tumor weight, dose: 62.5 mg/kg/injection, schedule: Q01DX011 (ip), vehicle: saline, higher = larger tumour): 95 % of control
- T/C (endpoint: mean tumor weight, dose: 125.0 mg/kg/injection, schedule: Q01DX011 (ip), vehicle: saline, higher = larger tumour): 107 % of control
- T/C (endpoint: mean tumor weight, dose: 250.0 mg/kg/injection, schedule: Q01DX011 (ip), vehicle: saline, higher = larger tumour): 75 % of control

Structure (SMILES): CCOC(=O)C(C)(C)Br
- T/C (endpoint: mean tumor weight, dose: 75.0 mg/kg/injection, schedule: Q01DX011 (ip), vehicle: other, higher = larger tumour): 90 % of control
- T/C (endpoint: mean tumor weight, dose: 150.0 mg/kg/injection, schedule: Q01DX011 (ip), vehicle: other, higher = larger tumour): 114 % of control
- T/C (endpoint: mean tumor weight, dose: 300.0 mg/kg/injection, schedule: Q01DX011 (ip), vehicle: other, higher = larger tumour): 98 % of control
- T/C (endpoint: mean tumor weight, dose: 500.0 mg/kg/injection, schedule: Q01DX011 (ip), vehicle: other, higher = larger tumour): 68 % of control
- T/C (endpoint: mean tumor weight, dose: 600.0 mg/kg/injection, schedule: Q01DX011 (ip), vehicle: other, higher = larger tumour): 102 % of control
- T/C (endpoint: mean tumor weight, dose: 750.0 mg/kg/injection, schedule: Q01DX011 (ip), vehicle: other, higher = larger tumour): 37 % of control

Structure (SMILES): COc1cccc(/C=N\NC(=O)C(C)SC(C)C(=O)N/N=C/c2cccc(OC)c2)c1 (stereo unspecified)
- T/C (endpoint: mean tumor weight, dose: 25.0 mg/kg/injection, schedule: Q01DX011 (ip), vehicle: carboxymethylcellulose (CMC), higher = larger tumour): 82 % of control
- T/C (endpoint: mean tumor weight, dose: 50.0 mg/kg/injection, schedule: Q01DX011 (ip), vehicle: carboxymethylcellulose (CMC), higher = larger tumour): 113 % of control
- T/C (endpoint: mean tumor weight, dose: 100.0 mg/kg/injection, schedule: Q01DX011 (ip), vehicle: carboxymethylcellulose (CMC), higher = larger tumour): 67 % of control
- T/C (endpoint: mean tumor weight, dose: 200.0 mg/kg/injection, schedule: Q01DX011 (ip), vehicle: carboxymethylcellulose (CMC), higher = larger tumour): 101 % of control
- T/C (endpoint: mean tumor weight, dose: 400.0 mg/kg/injection, schedule: Q01DX011 (ip), vehicle: carboxymethylcellulose (CMC), higher = larger tumour): 99 % of control
- T/C (endpoint: mean tumor weight, dose: 600.0 mg/kg/injection, schedule: Q01DX011 (ip), vehicle: carboxymethylcellulose (CMC), higher = larger tumour): 85 % of control

Structure (SMILES): O=C(O)CCc1c[nH]c2ccc(N(CCCl)CCCl)cc12
- T/C (endpoint: mean tumor weight, dose: 0.7 mg/kg/injection, schedule: Q01DX011 (ip), vehicle: carboxymethylcellulose (CMC), higher = larger tumour): 74 % of control
- T/C (endpoint: mean tumor weight, dose: 1.5 mg/kg/injection, schedule: Q01DX011 (ip), vehicle: carboxymethylcellulose (CMC), higher = larger tumour): 79 % of control
- T/C (endpoint: mean tumor weight, dose: 3.0 mg/kg/injection, schedule: Q01DX011 (ip), vehicle: carboxymethylcellulose (CMC), higher = larger tumour): 51 % of control

Structure (SMILES): O=CC1CO1 (stereo unspecified)
- T/C (endpoint: mean tumor weight, dose: 29.0 mg/kg/injection, schedule: Q01DX011 (ip), vehicle: saline, higher = larger tumour): 89 % of control
- T/C (endpoint: mean tumor weight, dose: 44.0 mg/kg/injection, schedule: Q01DX011 (ip), vehicle: saline, higher = larger tumour): 44 % of control
- T/C (endpoint: mean tumor weight, dose: 66.0 mg/kg/injection, schedule: Q01DX011 (ip), vehicle: saline, higher = larger tumour): 75 % of control
